Assay results reported in the supplement of paper PMC11208160.

Experiment: recombinant UMI read abundance after kanamycin selection (control-corrected) (log10(CPM+1)); higher = more efficient recombination; extreme values may be limits of the assay; sequences stand for … in AGTGCAGAGAAAATCGGCCAGTTTTCTCTGCCTGCAGTCCGCATGCCGTGGGACCCCTTGGGTTCTAACCTGTTGCCTAGATTTATGCAGCGGACTGCCTTTCTCCCAAAGTGATAAACCGG…AGGTTGGTTTCACT; site = the 11-nt donor
How it was run: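 In Escherichia coli, a pool of donor and donor-binding-loop pairs, each with a 12-nt UMI, was tested for the IS621 bridge recombinase. Plating was on IPTG (0.07 mM) plus kanamycin, or without selection, in two replicates. Recombinant UMIs were amplified by PCR across the donor–target junction and sequenced, and counts were reported as log10(CPM+1) after averaging and control-derived scaling.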
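Also: IS621 bridge recombinase in Escherichia coli cells against a fixed T5 target plasmid.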

| Sequence | recombinant UMI read abundance (log10) |
| --- | --- |
| GTAAGCGCATGGACCGGTTTTCCCGGTAATCCGTATTTGGC (site GTAAGCGCTGC) | 3.26 |
| GTAAGTACATGGACCGGTTTTCCCGGTAATCCGTATTTGGA (site GTAAGTACTTC) | 1.17 |
| GTAATAACATGGACCGGTTTTCCCGGTAATCCGTATTTGGC (site GTAATAACTGC) | 2.43 |
| GTAATACCATGGACCGGTTTTCCCGGTAATCCGTATTTGCA (site GTAATACCTTG) | 0 |
| GTAATCGCATGGACCGGTTTTCCCGGTAATCCGTATTTGCG (site GTAATCGCTCG) | 1.95 |
| GTAATCGCATGGACCGGTTTTCCCGGTAATCCGTATTTGCG (site GTACTCGCTCG) | 0.0396 |
| GTAATCGCATGGACCGGTTTTCCCGGTAATCCGTATTTGCG (site GTAGTCGCTCG) | 0.00978 |
| GTAATCGCATGGACCGGTTTTCCCGGTAATCCGTATTTGCG (site GTATTCGCTCG) | 0.00488 |
| GTAATGGCATGGACCGGTTTTCCCGGTAATCCGTATTTGAA (site GTAATGGCTTT) | 2.26 |
| GTAATTTCATGGACCGGTTTTCCCGGTAATCCGTATTTGCA (site GTAATTTCTTG) | 1.4 |
| GTACACGCATGGACCGGTTTTCCCGGTAATCCGTATTTGCT (site GTACACGCTAG) | 2.16 |
| GTACATTCATGGACCGGTTTTCCCGGTAATCCGTATTTGAT (site GTACATTCTAT) | 2.04 |
| GTACGCCCATGGACCGGTTTTCCCGGTAATCCGTATTTGAT (site GTACGCCCTAT) | 0.747 |
| GTACGCCCATGGACCGGTTTTCCCGGTAATCCGTATTTGCA (site GTACGCCCTTG) | 1.16 |
| GTACGCTCATGGACCGGTTTTCCCGGTAATCCGTATTTGAA (site GTACGCTCTTT) | 2.11 |
| GTACTAACATGGACCGGTTTTCCCGGTAATCCGTATTTGGC (site GTACTAACTGC) | 2.4 |
| GTACTACCATGGACCGGTTTTCCCGGTAATCCGTATTTGTG (site GTACTACCTCA) | 0.00602 |
| GTACTCGCATGGACCGGTTTTCCCGGTAATCCGTATTTGTC (site GTACTCGCTGA) | 2.42 |
| GTAGATACATGGACCGGTTTTCCCGGTAATCCGTATTTGCC (site GTAGATACTGG) | 0 |
| GTAGCGACATGGACCGGTTTTCCCGGTAATCCGTATTTGAG (site GTAGCGACTCT) | 1.28 |
| GTAGGAACATGGACCGGTTTTCCCGGTAATCCGTATTTGAC (site GTAGGAACTGT) | 2.59 |
| GTAGGAACATGGACCGGTTTTCCCGGTAATCCGTATTTGAC (site GTAGGCACTGT) | 1.3 |
| GTAGGAACATGGACCGGTTTTCCCGGTAATCCGTATTTGAC (site GTAGGGACTGT) | 2.24 |

| Sequence | recombinant UMI read abundance (log10) |
| --- | --- |
| GTAGGAACATGGACCGGTTTTCCCGGTAATCCGTATTTGAC (site GTAGGTACTGT) | 1.56 |
| GTAGGCACATGGACCGGTTTTCCCGGTAATCCGTATTTGAC (site GTAGGAACTGT) | 1.1 |
| GTAGGCACATGGACCGGTTTTCCCGGTAATCCGTATTTGAC (site GTAGGCACTGT) | 2.05 |
| GTAGGCACATGGACCGGTTTTCCCGGTAATCCGTATTTGAC (site GTAGGGACTGT) | 0 |
| GTAGGCACATGGACCGGTTTTCCCGGTAATCCGTATTTGAC (site GTAGGTACTGT) | 0.00895 |
| GTAGGTACATGGACCGGTTTTCCCGGTAATCCGTATTTGAC (site ATAGGTACTGT) | 2.02 |
| GTAGGTACATGGACCGGTTTTCCCGGTAATCCGTATTTGAC (site CTAGGTACTGT) | 1.95 |
| GTAGGTACATGGACCGGTTTTCCCGGTAATCCGTATTTGAC (site GAAGGTACTGT) | 0 |
| GTAGGTACATGGACCGGTTTTCCCGGTAATCCGTATTTGAC (site GCAGGTACTGT) | 0.704 |
| GTAGGTACATGGACCGGTTTTCCCGGTAATCCGTATTTGAC (site GGAGGTACTGT) | 0 |
| GTAGGTACATGGACCGGTTTTCCCGGTAATCCGTATTTGAC (site GTAAGTACTGT) | 1.98 |
| GTAGGTACATGGACCGGTTTTCCCGGTAATCCGTATTTGAC (site GTACGTACTGT) | 0.584 |
| GTAGGTACATGGACCGGTTTTCCCGGTAATCCGTATTTGAC (site GTAGATACTGT) | 1.54 |
| GTAGGTACATGGACCGGTTTTCCCGGTAATCCGTATTTGAC (site GTAGCTACTGT) | 0.853 |
| GTAGGTACATGGACCGGTTTTCCCGGTAATCCGTATTTGAC (site GTAGGAACTGT) | 1.59 |
| GTAGGTACATGGACCGGTTTTCCCGGTAATCCGTATTTGAC (site GTAGGCACTGT) | 2.64 |
| GTAGGTACATGGACCGGTTTTCCCGGTAATCCGTATTTGAC (site GTAGGGACTGT) | 1.8 |
| GTAGGTACATGGACCGGTTTTCCCGGTAATCCGTATTTGAC (site GTAGGTACTAT) | 2.23 |
| GTAGGTACATGGACCGGTTTTCCCGGTAATCCGTATTTGAC (site GTAGGTACTCT) | 0.304 |
| GTAGGTACATGGACCGGTTTTCCCGGTAATCCGTATTTGAC (site GTAGGTACTGA) | 1.23 |
| GTAGGTACATGGACCGGTTTTCCCGGTAATCCGTATTTGAC (site GTAGGTACTGC) | 1.5 |
| GTAGGTACATGGACCGGTTTTCCCGGTAATCCGTATTTGAC (site GTAGGTACTGG) | 0.351 |
| GTAGGTACATGGACCGGTTTTCCCGGTAATCCGTATTTGAC (site GTAGGTACTGT) | 2.01 |

| Sequence | recombinant UMI read abundance (log10) |
| --- | --- |
| GTAGGTACATGGACCGGTTTTCCCGGTAATCCGTATTTGAC (site GTAGGTACTTT) | 0 |
| GTAGGTACATGGACCGGTTTTCCCGGTAATCCGTATTTGAC (site GTAGGTCCTGT) | 0 |
| GTAGGTACATGGACCGGTTTTCCCGGTAATCCGTATTTGAC (site GTAGGTGCTGT) | 2.02 |
| GTAGGTACATGGACCGGTTTTCCCGGTAATCCGTATTTGAC (site GTAGGTTCTGT) | 1.76 |
| GTAGGTACATGGACCGGTTTTCCCGGTAATCCGTATTTGAC (site GTAGTTACTGT) | 1.2 |
| GTAGGTACATGGACCGGTTTTCCCGGTAATCCGTATTTGAC (site GTATGTACTGT) | 0.986 |
| GTAGGTACATGGACCGGTTTTCCCGGTAATCCGTATTTGAC (site GTCGGTACTGT) | 1.16 |
| GTAGGTACATGGACCGGTTTTCCCGGTAATCCGTATTTGAC (site GTGGGTACTGT) | 2.19 |
| GTAGGTACATGGACCGGTTTTCCCGGTAATCCGTATTTGAC (site GTTGGTACTGT) | 1.96 |
| GTAGGTACATGGACCGGTTTTCCCGGTAATCCGTATTTGAC (site TTAGGTACTGT) | 1.65 |
| GTAGGTACATGGACCGGTTTTCCCGGTAATCCGTATTTGAG (site GTAGGTACTAT) | 0.994 |
| GTAGGTACATGGACCGGTTTTCCCGGTAATCCGTATTTGAG (site GTAGGTACTCT) | 1.29 |
| GTAGGTACATGGACCGGTTTTCCCGGTAATCCGTATTTGAG (site GTAGGTACTGT) | 1.42 |
| GTAGGTACATGGACCGGTTTTCCCGGTAATCCGTATTTGAG (site GTAGGTACTTT) | 0.806 |
| GTAGGTACATGGACCGGTTTTCCCGGTAATCCGTATTTGAT (site GTAGGTACTAT) | 1.87 |
| GTAGGTACATGGACCGGTTTTCCCGGTAATCCGTATTTGAT (site GTAGGTACTCT) | 0.18 |
| GTAGGTACATGGACCGGTTTTCCCGGTAATCCGTATTTGAT (site GTAGGTACTGT) | 0.596 |
| GTAGGTACATGGACCGGTTTTCCCGGTAATCCGTATTTGAT (site GTAGGTACTTT) | 0.00769 |
| GTAGTACCATGGACCGGTTTTCCCGGTAATCCGTATTTGAC (site CTAGTATCTGT) | 0 |
| GTAGTACCATGGACCGGTTTTCCCGGTAATCCGTATTTGAC (site GTAGTACCTGT) | 0 |
| GTAGTCACATGGACCGGTTTTCCCGGTAATCCGTATTTGCG (site GTAGTCACTCG) | 2.1 |
| GTAGTCACATGGACCGGTTTTCCCGGTAATCCGTATTTGCG (site GTAGTCCCTCG) | 0.0197 |
